{
  "source": "ChEMBL document CHEMBL3638654",
  "about": "“5-HT3 receptor modulators, methods of making, and use thereof” (2015)",
  "molecular_target": "T1, 5-hydroxytryptamine receptor 3A (Homo sapiens, UniProt P46098)",
  "T1 sequence (P46098 whole entry)": "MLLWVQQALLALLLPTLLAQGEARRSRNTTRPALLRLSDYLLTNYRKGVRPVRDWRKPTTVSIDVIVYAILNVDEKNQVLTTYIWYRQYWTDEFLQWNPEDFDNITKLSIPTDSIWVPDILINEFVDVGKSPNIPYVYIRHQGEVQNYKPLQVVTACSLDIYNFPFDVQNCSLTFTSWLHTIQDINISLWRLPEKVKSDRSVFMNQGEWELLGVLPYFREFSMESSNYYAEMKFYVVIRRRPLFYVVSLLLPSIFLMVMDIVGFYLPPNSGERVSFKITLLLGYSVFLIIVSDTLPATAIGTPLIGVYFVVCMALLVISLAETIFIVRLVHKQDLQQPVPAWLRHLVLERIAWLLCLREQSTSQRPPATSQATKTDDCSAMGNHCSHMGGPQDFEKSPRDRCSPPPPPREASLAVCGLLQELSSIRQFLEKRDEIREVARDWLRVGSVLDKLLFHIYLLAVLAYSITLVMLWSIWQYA",
  "experiment": "Radioligand Binding Assay: The relative affinity of the various compounds for the human 5-HT3 receptor was measured in a radioligand binding assay, using a scintillation proximity assay (SPA) format. Test compounds were dissolved to 10 mM in 100% DMSO, then serially diluted at 10x assay concentrations in 100% DMSO in 96-well polypropylene plates and further diluted to 4x assay concentrations with the assay buffer. Samples were incubated in 50 mM Tris-HCl, pH 7.5, 3 mM MgCl2, 1 mM EDTA and 10% DMSO with 10 nM [9-methyl-3H]BRL-43694 (Perkin Elmer), 3 ug of human 5-HT3 receptor membranes (Perkin Elmer) and 0.5 mg/mL SPA beads (WGA PVT, Amersham Biosciences) in a final volume of 0.2 mL. Binding reactions were set up in wells of PicoPlates-96 (Perkin Elmer) by adding consecutively 50 uL of each competing compound or buffer, SPA beads, the radioligand and 5-HT3 receptor membranes. After an overnight incubation at room temperature on a Nutator mixer, plates were centrifuged for 15 min at 1,500 rpm.",
  "note": "pKi: −log10 of the molar value. “And” between values parts separate entries of the source, which are not always exact repeats. Identical values can stand only once.",
  "data": [
    {"smiles": "O=C1c2cccc3[nH]nc(c23)CN1CC1CN2CCC1CC2", "note": "(configuration not stated)", "values": [
      {"measurement": "pKi", "result": "6.66 and 7.62"}
    ]},
    {"smiles": "O=C1c2cccc3[nH]nc(c23)CCN1CC1CN2CCC1CC2", "note": "(configuration not stated)", "values": [
      {"measurement": "pKi", "result": "6.24 and 6.62"}
    ]}
  ]
}
